# Assay results from patent US10111936B2, “Metal-glycoprotein complexes and photodynamic therapy of immune privileged sites with same” (Theralase Technologies, Inc., priority 2015, dated 2018).
# Where two headings read alike, the source gives them in different places.
# Legend:
# Mice = assay: In vivo toxicity, maximum tolerated dose, i.p. escalating doses; set-up: species or system mouse; details: no transferrin
# Protocol: Mice were injected (i.p.) with escalating doses of the photosensitizers with and without transferrin.
# [1] = Singlet oxygen production, cell free (SOG indicator fluorescence); type: physicochemical; set-up: unit not given here
# Protocol: (§1) The photosensitizers were diluted in phosphate buffer (pH=7.0)+100 mM NaCl or incomplete DMEM. The irradiation was performed in 96-well plates (100 uL working volume). Generation of singlet oxygen was measured by fluorescence signal of SOG indicator, generation of hydroxyl radical by fluorescence signal of HPF indicator. The signal presented is a result of subtraction of the signal in the presence of scavengers (NaN3 for singlet oxygen and DMTU for hydroxyl radical) from the total fluorescence signal.
# Subcutaneous tumors = assay: In vivo PDT of subcutaneous tumors in mouse thighs
# Protocol: Subcutaneous tumors were grown in mouse thighs and PDT (808 nm, 600 Jcm^−2) was performed when tumor reached 5×5 mm in size. Mice were sacrificed if tumor continued to grow after PDT treatment and reached 10×10 mm.
# Subcutaneous tumors were grown in mouse thighs and PDT (635 nm, 192 Jcm^−2) was performed when tumor reached 5×5 mm in size. Mice were sacrificed if tumor continued to grow after PDT treatment and reached 10×10 mm.
# Subcutaneous tumors were grown in mouse thighs and PDT (525 nm, 90 Jcm^−2) was performed when tumor reached 5×5 mm in size. Mice were sacrificed if tumor continued to grow after PDT treatment and reached 10×10 mm.
# Transferrin = Transferrin (Homo sapiens, UniProt P02787); assay: Binding to transferrin by absorption spectra; details: transferrin 0.2 mg/mL; photosensitizer 10 uM
# Protocol: Transferrin (0.2 mg/mL) was incubated with the photosensitizers (10 uM) and absorption spectra were obtained.
# Binding of Ruthenium and Ruthenium-Rhodium-based photosensitizers to transferrin is characterized by a characteristic signature: an increased peak of absorption at 280 nm and a new peak in 400-500 nm range.
# [2] = Hydroxyl radical production, cell free (HPF indicator fluorescence); type: physicochemical; set-up: unit not given here
# Protocol: as §1
# [3] = Fluorescence with and without transferrin; type: physicochemical; details: for fluorescence emission maximum: 10 uM
# Protocol: Fluorescence of TLD1433 (10 uM) was measured quartz cuvettes without Tf (in water) and in the presence of 0.2 mg/mL Tf (in phosphate buffer+100 mM NaCl, pH=7.0). Fluorescence was measured at different excitation wavelengths (380, 400, 450, 470, 500 nm).
# Fluorescence of TLDOsH2dppn (10 uM) was measured quartz cuvettes without Tf (in water) and in the presence of 0.2 mg/mL Tf (in phosphate buffer+100 mM NaCl, pH=7.0). Fluorescence was measured at different excitation wavelengths (380, 400, 450, 470, 500 nm).
# AY27 cancer cell line = assay: In vitro PDT effect, Presto Blue cell kill; type: cell-based; details: 90 J cm−2, 0.4 mg/mL human transferrin, 30 minutes
# Protocol: The photosensitizer was pre-mixed with 0.4 mg/mL human transferrin and incubated for 1 hour at 37° C. In control group (no additional transferrin), equivalent volume of no-transferrin medium was added. The cells were subsequently incubated with the pre-mixes for 30 minutes (FIG. 14A) or 90 minutes (FIG. 14B). After that, the medium was replaced with a fresh one (without photosensitizer and transferrin) and the cells were irradiated. On the next day (21 hours post-irradiation), viability of the cells was measured using Presto Blue viability assay, and percent of cell kill was calculated. The PDT effect shown is a result of subtraction of “photosensitizer alone” and “light alone” cell kill from the total PDT cell kill.
# The photosensitizer was pre-mixed with 0.4 mg/mL human transferrin and incubated for 1 hour at 37° C. In control group (no additional transferrin), equivalent volume of no-transferrin medium was added. The cells were subsequently incubated with the pre-mixes for 30 minutes. After that, the medium was replaced with a fresh one (without photosensitizer and transferrin) and the cells were irradiated. On the next day (21 hours post-irradiation), viability of the cells was measured using Presto Blue viability assay, and percent of cell kill was calculated. […]
# [4] = 530 nm & 1092 J cm−2, incomplete DMEM, 0.8 mg/mL transferrin
# [5] = 530 nm & 1092 J cm−2, incomplete DMEM, 1.6 mg/mL transferrin
# [6] = 530 nm & 1092 J cm−2, incomplete DMEM, 3.2 mg/mL transferrin
# [7] = 530 nm & 1092 J cm−2, incomplete DMEM, no transferrin
# [8] = 530 nm & 1092 J cm−2, phosphate buffer, 0.8 mg/mL transferrin
# [9] = 530 nm & 1092 J cm−2, phosphate buffer, 1.6 mg/mL transferrin
# [10] = 530 nm & 1092 J cm−2, phosphate buffer, 3.2 mg/mL transferrin
# [11] = 530 nm & 1092 J cm−2, phosphate buffer, no transferrin
# [12] = 635 nm & 649 J cm−2, incomplete DMEM, 0.8 mg/mL transferrin
# [13] = 635 nm & 649 J cm−2, incomplete DMEM, 1.6 mg/mL transferrin
# [14] = 635 nm & 649 J cm−2, incomplete DMEM, 3.2 mg/mL transferrin
# [15] = 635 nm & 649 J cm−2, incomplete DMEM, no transferrin
# [16] = 635 nm & 649 J cm−2, phosphate buffer, 0.8 mg/mL transferrin
# [17] = 635 nm & 649 J cm−2, phosphate buffer, 1.6 mg/mL transferrin
# [18] = 635 nm & 649 J cm−2, phosphate buffer, 3.2 mg/mL transferrin
# [19] = 635 nm & 649 J cm−2, phosphate buffer, no transferrin
# [20] = 808 nm & 4000 J cm−2, incomplete DMEM, 0.8 mg/mL transferrin
# [21] = 808 nm & 4000 J cm−2, incomplete DMEM, 1.6 mg/mL transferrin
# [22] = 808 nm & 4000 J cm−2, incomplete DMEM, 3.2 mg/mL transferrin
# [23] = 808 nm & 4000 J cm−2, incomplete DMEM, no transferrin
# [24] = 808 nm & 4000 J cm−2, phosphate buffer, 0.8 mg/mL transferrin
# [25] = 808 nm & 4000 J cm−2, phosphate buffer, 1.6 mg/mL transferrin
# [26] = 808 nm & 4000 J cm−2, phosphate buffer, 3.2 mg/mL transferrin
# [27] = 808 nm & 4000 J cm−2, phosphate buffer, no transferrin
# [28] = 530 nm, 90 J cm−2, no transferrin
# [29] = 650 nm, 90 J cm−2, no transferrin
# Transferrin, sequence (P02787 20-698): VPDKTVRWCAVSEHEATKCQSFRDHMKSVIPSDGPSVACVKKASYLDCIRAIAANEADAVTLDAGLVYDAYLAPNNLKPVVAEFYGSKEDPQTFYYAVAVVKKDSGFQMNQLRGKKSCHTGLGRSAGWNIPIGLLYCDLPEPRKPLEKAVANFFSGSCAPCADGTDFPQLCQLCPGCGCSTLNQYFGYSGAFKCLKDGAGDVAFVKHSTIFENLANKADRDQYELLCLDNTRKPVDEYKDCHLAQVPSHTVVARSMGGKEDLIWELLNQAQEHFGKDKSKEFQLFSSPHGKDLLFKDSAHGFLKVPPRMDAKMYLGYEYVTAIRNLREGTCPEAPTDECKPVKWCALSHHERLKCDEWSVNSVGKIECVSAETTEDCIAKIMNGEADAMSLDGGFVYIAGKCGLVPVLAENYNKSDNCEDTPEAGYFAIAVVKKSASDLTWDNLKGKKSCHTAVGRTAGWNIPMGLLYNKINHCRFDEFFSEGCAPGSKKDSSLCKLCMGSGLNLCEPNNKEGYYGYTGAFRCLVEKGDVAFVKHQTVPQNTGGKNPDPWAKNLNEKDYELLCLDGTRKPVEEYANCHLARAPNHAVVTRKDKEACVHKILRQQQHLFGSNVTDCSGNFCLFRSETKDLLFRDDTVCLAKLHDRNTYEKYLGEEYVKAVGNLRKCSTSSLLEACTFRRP
compound,measurement,setting,value
[Os+2].c1ccc2cc3nc4c5cccnc5c5ncccc5c4nc3cc2c1.c1ccc2nc(-c3ccc4ccccc4n3)ccc2c1.c1ccc2nc(-c3ccc4ccccc4n3)ccc2c1 [TLDOsH2dppn],MTD Dose,Mice,50 mg/kg
same,singlet oxygen production,[1]; [4],35127
same,singlet oxygen production,[1]; [5],43927
same,singlet oxygen production,[1]; [6],61734
same,singlet oxygen production,[1]; [7],36391
same,singlet oxygen production,[1]; [8],42816
same,singlet oxygen production,[1]; [9],56372
same,singlet oxygen production,[1]; [10],77219
same,singlet oxygen production,[1]; [11],25937
same,singlet oxygen production,[1]; [12],53931
same,singlet oxygen production,[1]; [13],75293
same,singlet oxygen production,[1]; [14],81807
same,singlet oxygen production,[1]; [15],15109
same,singlet oxygen production,[1]; [16],42837
same,singlet oxygen production,[1]; [17],51832
same,singlet oxygen production,[1]; [18],72938
same,singlet oxygen production,[1]; [19],10392
same,singlet oxygen production,[1]; [20],25384
same,singlet oxygen production,[1]; [21],55631
same,singlet oxygen production,[1]; [22],62804
same,singlet oxygen production,[1]; [23],11907
same,singlet oxygen production,[1]; [24],10000
same,singlet oxygen production,[1]; [25],30000
same,singlet oxygen production,[1]; [26],40000
same,singlet oxygen production,[1]; [27],8000
same,Survival by day 80,"Subcutaneous tumors; PDT 525 nm, 90 Jcm−2, with transferrin",78%
same,Survival by day 80,"Subcutaneous tumors; PDT 525 nm, 90 Jcm−2, without transferrin",37%
same,Survival by day 80,"Subcutaneous tumors; PDT 635 nm, 192 Jcm−2, with transferrin",75%
same,Survival by day 80,"Subcutaneous tumors; PDT 635 nm, 192 Jcm−2, without transferrin",35%
same,Survival by day 80,"Subcutaneous tumors; PDT 808 nm, 600 Jcm−2, with transferrin",80%
same,Survival by day 80,"Subcutaneous tumors; PDT 808 nm, 600 Jcm−2, without transferrin",40%
same,Therapeutic Ratio,AY27 cells; [28],1639.8
same,Therapeutic Ratio,"AY27 cells; 530 nm, 90 J cm−2, transferrin",5531.9
same,Therapeutic Ratio,AY27 cells; [29],28.7
same,Therapeutic Ratio,"AY27 cells; 650 nm, 90 J cm−2, transferrin",61.7
same,transferrin binding (absorption spectra),Transferrin,transferrin binding
same,hydroxyl radical production,[2]; [4],70308
same,hydroxyl radical production,[2]; [5],132309
same,hydroxyl radical production,[2]; [6],164301
same,hydroxyl radical production,[2]; [7],32934
same,hydroxyl radical production,[2]; [8],41037
same,hydroxyl radical production,[2]; [9],83034
same,hydroxyl radical production,[2]; [10],120307
same,hydroxyl radical production,[2]; [11],25290
same,hydroxyl radical production,[2]; [12],32531
same,hydroxyl radical production,[2]; [13],42806
same,hydroxyl radical production,[2]; [14],73624
same,hydroxyl radical production,[2]; [15],12093
same,hydroxyl radical production,[2]; [16],25280
same,hydroxyl radical production,[2]; [17],45372
same,hydroxyl radical production,[2]; [18],72316
same,hydroxyl radical production,[2]; [19],8804
same,hydroxyl radical production,[2]; [20],42305
same,hydroxyl radical production,[2]; [21],77024
same,hydroxyl radical production,[2]; [22],102864
same,hydroxyl radical production,[2]; [23],14237
same,hydroxyl radical production,[2]; [24],13408
same,hydroxyl radical production,[2]; [25],20392
same,hydroxyl radical production,[2]; [26],56094
same,hydroxyl radical production,[2]; [27],8931
same,Therapeutic Ratio,U87 cells; [28],1307.3
same,Therapeutic Ratio,"U87 cells; 530 nm, 90 J cm−2, transferrin",5238.0
same,Therapeutic Ratio,U87 cells; [29],15.3
same,Therapeutic Ratio,"U87 cells; 650 nm, 90 J cm−2, transferrin",50.3
same,fluorescence emission maximum,[3]; 0.2 mg/mL transferrin,650 nm
same,fluorescence emission maximum,[3]; no transferrin (in water),660 nm
same,fluorescence in the presence of transferrin,"[3]; 0.2 mg/mL transferrin, especially at 470 nm excitation",strongly increased
same,Therapeutic Ratio,HT1376 cells; [28],1548.2
same,Therapeutic Ratio,"HT1376 cells; 530 nm, 90 J cm−2, transferrin",4963.8
same,Therapeutic Ratio,"HT1376 cells; 650 nm, 90 J cm−2, no transferrin (cell not marked prophetic)",37.7
same,Therapeutic Ratio,"HT1376 cells; 650 nm, 90 J cm−2, transferrin",61.9
same,"PDT effect, effect of transferrin",AY27 cancer cell line; 530 nm,increases PDT effect
same,"PDT effect, effect of transferrin",AY27 cancer cell line; 635 nm,increases PDT effect
